This is an account of results in BindingDB's records for PubMed 1656026 (University of Nebraska, 1991).

Assay [1] concerns the target Alpha-2C adrenergic receptor.
Assay [2] has as its target T1, Alpha-2A adrenergic receptor (Homo sapiens, UniProt P08913).
T1 sequence (P08913 whole entry): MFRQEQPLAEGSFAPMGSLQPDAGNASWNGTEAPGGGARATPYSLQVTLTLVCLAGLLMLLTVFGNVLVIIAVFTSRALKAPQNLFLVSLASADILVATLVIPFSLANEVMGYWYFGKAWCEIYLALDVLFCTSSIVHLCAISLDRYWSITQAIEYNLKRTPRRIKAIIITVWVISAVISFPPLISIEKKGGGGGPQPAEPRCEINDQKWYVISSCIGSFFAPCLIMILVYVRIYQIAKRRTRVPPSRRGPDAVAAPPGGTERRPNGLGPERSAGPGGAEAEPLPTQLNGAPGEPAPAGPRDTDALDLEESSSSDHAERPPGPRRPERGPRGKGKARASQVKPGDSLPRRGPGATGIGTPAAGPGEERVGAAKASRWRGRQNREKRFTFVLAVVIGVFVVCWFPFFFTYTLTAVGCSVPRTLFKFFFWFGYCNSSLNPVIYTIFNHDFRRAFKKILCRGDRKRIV

The target of assay [3] is T2, Alpha-2B adrenergic receptor (Rattus norvegicus, UniProt P19328).
T2 sequence (P19328 whole entry): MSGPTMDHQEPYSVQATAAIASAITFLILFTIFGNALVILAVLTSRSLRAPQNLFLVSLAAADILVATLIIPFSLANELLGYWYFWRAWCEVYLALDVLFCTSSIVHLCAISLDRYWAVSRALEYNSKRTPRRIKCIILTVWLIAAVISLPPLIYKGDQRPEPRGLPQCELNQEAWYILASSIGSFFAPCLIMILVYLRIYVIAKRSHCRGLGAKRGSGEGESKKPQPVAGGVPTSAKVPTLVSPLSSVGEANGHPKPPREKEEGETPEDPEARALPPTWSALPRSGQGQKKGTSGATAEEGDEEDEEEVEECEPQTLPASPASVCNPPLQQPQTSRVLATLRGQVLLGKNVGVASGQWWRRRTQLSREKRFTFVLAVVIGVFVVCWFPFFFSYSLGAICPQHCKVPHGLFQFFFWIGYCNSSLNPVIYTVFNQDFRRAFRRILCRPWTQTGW

In assay [4] the target is T3, Alpha-2C adrenergic receptor (Didelphis virginiana, UniProt P35405).
T3 sequence (P35405 whole entry): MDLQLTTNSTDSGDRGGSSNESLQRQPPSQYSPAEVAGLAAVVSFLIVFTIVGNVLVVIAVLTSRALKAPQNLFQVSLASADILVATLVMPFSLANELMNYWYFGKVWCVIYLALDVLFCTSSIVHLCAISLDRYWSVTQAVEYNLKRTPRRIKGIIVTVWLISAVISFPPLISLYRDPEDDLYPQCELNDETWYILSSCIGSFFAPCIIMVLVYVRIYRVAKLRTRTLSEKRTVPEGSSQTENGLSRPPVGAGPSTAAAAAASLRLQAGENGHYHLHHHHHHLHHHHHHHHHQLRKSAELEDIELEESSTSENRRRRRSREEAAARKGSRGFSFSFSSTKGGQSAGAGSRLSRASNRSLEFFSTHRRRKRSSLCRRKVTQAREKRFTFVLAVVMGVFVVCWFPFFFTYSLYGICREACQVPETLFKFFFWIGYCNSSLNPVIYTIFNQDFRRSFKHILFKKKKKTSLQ

“And” between values parts separate entries of the source, which are not always exact repeats. Equal values may be shown once. Where a name gives a salt, the structure may show the parent alone. Numbered stars: 1 amine (or outer) side, 2 acyl side, 3 side chain; on linkers, the order of the positions; unused ones are H or OH. Square brackets hold non-standard residues; d marks the D form. Peptide text beside a SMILES is read from it. * marks the point of attachment. Cyclohexylacetyl(1-SH) = O=C(CC1(S)CCCCC1)*; X1 = O=C(C(C=S)N[*:1])[*:2]

In the case of `CCCN(CCC)C1CCc2cccc(O)c2C1` (stereo unspecified), the inhibition constant (Ki) was 117 nM in assay [1], 186 nM in assay [2] and 148 nM in assay [3].

On to `CC(C)(C)[C@]1(O)CCN2C[C@H]3c4ccccc4CCc4cccc(c43)[C@@H]2C1`, for which the Ki came to 42 nM in assay [1], 53 nM in assay [2] and 12 nM in assay [3].

Turning to `c1ccc2c(c1)OCC(C1=NCCN1)O2` (stereo unspecified), the values for the inhibition constant (Ki) in assay [4] and in assay [1] were 2.4 nM and 0.56 nM, respectively.

Regarding `CN1c2ccc(F)cc2CC1C1=NCCN1` (stereo unspecified), the inhibition constant (Ki) in assay [1] worked out at 0.48 nM; in assay [2], 0.4 nM; in assay [3], 1 nM.

For `Clc1ccc2nsnc2c1NC1=NCCN1`, the Ki in assay [1] was 75 nM; in assay [3], 76 nM.

For the molecule `OCCN1CCN(CCCN2c3ccccc3Sc3ccc(C(F)(F)F)cc32)CC1` [2-[4-[3-[2-(trifluoromethyl)phenothiazin-10-yl]propyl]piperazin-1-yl]ethanol;hydrochloride], the Ki in assay [1] was 122 nM; in assay [2] it was 304 nM; in assay [3], 320 nM.

Take `O=C(c1ccc(F)cc1)C1CCN(CCn2c(=O)[nH]c3ccccc3c2=O)CC1` [3-(2-{4-[(4-fluorophenyl)carbonyl]piperidin-1-yl}ethyl)-1,2,3,4-tetrahydroquinazoline-2,4-dione]: the Ki in assay [1] amounted to 159 nM; in assay [3] it was 226 nM.

`CN1CCN(C2=c3ccccc3=Nc3ccc(Cl)cc3N2)CC1` [6-chloro-10-(4-methylpiperazin-1-yl)-2,9-diazatricyclo[9.4.0.0^{3,8}]pentadeca-1,3(8),4,6,10,12,14-heptaene] yielded a Ki in assay [1] of 4.2 nM.

As for `O=C1NCN(c2ccccc2)C12CCN(CC1COc3ccccc3O1)CC2` (stereo unspecified) [8-(2,3-Dihydro-benzo[1,4]dioxin-2-ylmethyl)-1-phenyl-1,3,8-triaza-spiro[4.5]decan-4-one], the Ki in assay [4] stood at 0.67 nM; in assay [1] it was 0.59 nM; in assay [2], 13 nM; in assay [3] it was 0.34 nM.

The molecule `CSc1ccc2c(c1)N(CC[C@@H]1CCCCN1C)c1ccccc1S2` [10-[2-(1-Methyl-piperidin-2-yl)-ethyl]-2-methylsulfanyl-10H-phenothiazine (thioridazine)] returned a Ki in assay [1] of 549 nM.

Consider `COC(=O)C1=CO[C@@H](C)[C@@H]2CN3CCc4c([nH]c5ccccc45)[C@H]3C[C@H]12` [AKUAMMIGINE], for which the inhibitory constant (Ki) in assay [1] was 12 nM; in assay [2], 130 nM; in assay [3] it was 208 nM.

In the case of `COC(=O)C1=COC(C)C2CN3CCc4c([nH]c5ccccc45)C3CC12` (stereo unspecified) [Ajmalicine], the inhibitory constant (Ki) in assay [1] was 1.1 nM and 0.3 nM.

As for `CN1C[C@H](Cn2ccnc2-c2ccccc2)C[C@@H]2c3cccc4[nH]c(Br)c(c34)C[C@H]21` [BAM-1303], the Ki in assay [1] came to 0.38 nM; in assay [2], 2.5 nM; in assay [3] it was 26 nM.

As to `O=C1c2ccccc2CCC1CNCCc1ccc(O)cc1` (stereo unspecified) [CAS_34772], the Ki in assay [1] was determined as 0.5 nM; in assay [2] it was 0.93 nM; in assay [3] it was 0.68 nM.

On to `Clc1cccc2c1CN(NC1=NCCN1)C2` [CAS_76727-72-5], for which the figures for the Ki in assay [1], in assay [2] and in assay [3] were 0.08 nM, 0.06 nM and 0.14 nM, respectively.

With `Cc1nc2n(c(=O)c1CCN1CCC(C(=O)c3ccc(F)cc3)CC1)CCS2` [CAS_86487-64-1], the Ki was 51 nM in assay [1], 90 nM in assay [2] and 25 nM in assay [3].

As for `CS(=O)(=O)NCCN(C1CCN2CCc3ccccc3C2C1)S(C)(=O)=O` (stereo unspecified) [CAS_125697], the Ki in assay [1] amounted to 0.56 nM; in assay [2] it was 11 nM; in assay [3], 5.2 nM.

Regarding `Cc1cccc(C)c1CCc1cnc[nH]1` [CAS_133305], the Ki in assay [1] is 14 nM; in assay [2] it was 8.7 nM; in assay [3], 18 nM.

Regarding `CCCS(=O)(=O)N(C)C1CCN2CCc3ccccc3C2C1` (stereo unspecified) [CAS_133816], the Ki in assay [1] was found to be 0.86 nM; in assay [2], 2.2 nM; in assay [3], 1.9 nM.

Regarding `CCOc1ccc(CC(NC(=O)CC2(S)CCCCC2)C(=O)NC(Cc2ccccc2)C(=O)NC(C(=O)NC(CC(N)=O)C(=O)NC(C=S)C(=O)NC(CCCCN)C(N)=O)C(C)C)cc1` (stereo unspecified) [CAS_196343] ({Cyclohexylacetyl(1-SH)}-Y(Et)FVN[X1]K-NH2; configuration not given here), the Ki in assay [1] was 0.14 nM; in assay [2], 0.36 nM; in assay [3] it was 0.48 nM.

For `CN1CCN(C2=Nc3ccccc3Sc3nccn32)CC1` [CGS-10746B], the inhibition constant (Ki) in assay [1] is 804 nM; in assay [2] it was 3600 nM; in assay [3], 574 nM.

Turning to `Clc1cncc(N2CCNCC2)n1` [L-630,571], the inhibition constant (Ki) was 126 nM in assay [1], 153 nM in assay [2] and 125 nM in assay [3].

For `c1cn2ccnc2c(N2CCNCC2)n1` [L-639,019], the Ki was 88 nM in assay [1], 35 nM in assay [2] and 34 nM in assay [3].

On to `Fc1cccnc1N1CCNCC1` [L-644,763], for which the results for the inhibition constant (Ki) in assay [1], in assay [2] and in assay [3] were 20 nM, 20 nM and 23 nM, respectively.

Regarding `CN1CCC2(CCN3CCc4c(oc5ccccc45)C3C2)N(C)C1=O` (stereo unspecified) [MK-912], the inhibitory constant (Ki) amounted to 0.03 nM in assay [1], 0.42 nM in assay [2] and 0.26 nM in assay [3].

Take `Oc1ccc(C2CNCCc3c2cc(O)c(O)c3Cl)cc1` (stereo unspecified) [MLS001401388]: the values for the Ki in assay [1] and in assay [3] were 22 nM and 91 nM, respectively.

For the molecule `CN1CCc2cccc(Cl)c2CC1` [MLS002172470], the inhibition constant (Ki) in assay [1] was found to be 2.7 nM; in assay [2] it was 2.4 nM; in assay [3], 1.8 nM.

As to `CCCCS(=O)(=O)N(C)[C@H]1CCN2CCc3ccccc3[C@H]2C1` [N-[(2S,11bR)-2,3,4,6,7,11b-hexahydro-1H-benzo[a]quinolizin-2-yl]-N-methylbutane-1-sulfonamide hydrochloride], the inhibition constant (Ki) in assay [1] came out at 0.46 nM; in assay [2] it was 1.4 nM; in assay [3], 1.7 nM.

With `C=CCN1Cc2ccccc2-c2ccccc2C1` [NSC_8966], the Ki in assay [1] came to 14 nM; in assay [2], 38 nM; in assay [3] it was 5.3 nM.

For `CN(C)CCCN1c2ccc(O)cc2Sc2ccc(Cl)cc21` [NSC_16414], the inhibition constant Ki in assay [1] turned out to be 325 nM; in assay [3] it was 59 nM.

With `CCC1(c2cnc[nH]2)Cc2ccccc2C1` [NSC_71310], the Ki is 2.74 nM in assay [4], 0.46 nM in assay [1] and 0.33 nM in assay [2].

For the molecule `COc1ccccc1N1CCN(CCC2C(=O)c3ccccc3C(C)(C)C2=O)CC1` (stereo unspecified) [NSC_122211], the inhibition constant (Ki) in assay [4] came out at 48 nM; in assay [1], 13 nM; in assay [2], 171 nM; in assay [3], 1.6 nM.

As to `CCOC1(C2=NCCN2)COc2ccccc2O1` (stereo unspecified) [NSC_125992], the inhibition constant (Ki) in assay [1] was found to be 0.24 nM; in assay [2] it was 0.2 nM; in assay [3], 0.58 nM.

On to `COc1cccc(OC)c1OCCNCC1Oc2ccccc2OC1c1ccccc1` (stereo unspecified) [NSC_185453], for which the Ki was 1.6 nM in assay [4], 0.27 nM in assay [1], 1.2 nM in assay [2] and 8.7 nM in assay [3].

In the case of `c1ccc2c(c1)OCC(CN1CCCCC1)O2` (stereo unspecified) [Piperoxan], the Ki was 1.3 nM in assay [1], 5.4 nM in assay [2] and 2 nM in assay [3].

As to `CC(C)=CCOc1ccc(Cl)c2c1CCN(C)CC2` [SK&F-104078], the Ki in assay [1] was determined as 43 nM; in assay [2], 32 nM; in assay [3] it was 49 nM.

Molecule `Cc1cc(C(C)(C)C)c(O)c(C)c1CC1=NCCN1` [SMR000059324] displayed an inhibition constant Ki in assay [4] of 73 nM. That is a double-digit nanomolar value.

With `c1ccc(CC2=NCCN2)cc1` [Tolazoline], the results for the inhibition constant Ki in assay [1] and in assay [3] were 222 nM and 113 nM, respectively.

Turning to `CN(C)CCCN1c2ccccc2Sc2ccc(Cl)cc21` [[3-(2-Chloro-phenothiazin-10-yl)-propyl]-dimethyl-amine(Chlorpromazine)], the affinity in assay [4] corresponds to a Ki of 116 nM.

As to `COc1cc2nc(N3CCN(C(=O)c4ccco4)CC3)nc(N)c2cc1OC` [[3H]-Minipress], the Ki in assay [4] turned out to be 36 nM; in assay [1], 15 nM.
